Measurements taken from US20090117563A1, “Identification of TRPML3 (MCOLN3) as a Salty Taste Receptor and Use in Assays for Identifying Taste (Salty) Modulators and/or Therapeutics that Modulate Sodium Transport, Absorption or Excretion and/or Aldosterone and/or Vasopressin Production or Release” (priority 2007, published 2009).

Target: T1, human TRPML3 (Homo sapiens, UniProt Q8TDD5)
T1 construct: expressed in transfected cells
T1 sequence (Q8TDD5 1-553): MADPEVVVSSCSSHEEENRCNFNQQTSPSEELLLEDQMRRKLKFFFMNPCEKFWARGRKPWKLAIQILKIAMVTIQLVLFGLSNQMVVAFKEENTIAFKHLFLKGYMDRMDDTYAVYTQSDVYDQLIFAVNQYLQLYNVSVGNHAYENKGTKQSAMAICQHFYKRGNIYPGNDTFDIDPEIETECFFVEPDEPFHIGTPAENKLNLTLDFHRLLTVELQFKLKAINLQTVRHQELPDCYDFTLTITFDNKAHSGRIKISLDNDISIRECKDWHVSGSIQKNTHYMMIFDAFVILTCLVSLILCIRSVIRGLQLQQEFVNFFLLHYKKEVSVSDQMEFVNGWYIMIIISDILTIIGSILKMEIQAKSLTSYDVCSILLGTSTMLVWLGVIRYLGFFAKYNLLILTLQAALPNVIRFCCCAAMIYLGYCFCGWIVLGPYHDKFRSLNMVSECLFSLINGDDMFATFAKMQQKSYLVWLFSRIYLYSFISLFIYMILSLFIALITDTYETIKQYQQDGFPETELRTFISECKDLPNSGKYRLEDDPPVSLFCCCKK
Assay: Two-electrode voltage clamp in oocytes injected with human TRPML3 cRNA
Assay type: cell-based
Conditions: 300 uM gadolinium (GdCl3) solution; −100 to +60 mV
Description: Twenty-four to forty-eight hours following microinjection of 10-25 ng human TRPML3 cRNA, TRPML3 function is measured in oocytes using the two-electrode voltage clamp technique on an OpusXpress 6000A parallel oocyte voltage clamp system (MDS Analytical Technologies). The two-electrode voltage clamp technique is an electrophysiology method that measures the macroscopic electrical current flowing across the entire oocyte membrane though protein channels (Stuhmer, Methods in Enzymology (1992) 207: 319-339). Oocytes are impaled with a voltage-sensing electrode and a current-sensing electrode; the voltage, or potential difference across the oocyte membrane, is clamped to a particular value using the voltage-sensing electrode and the current, or the flow of ions across the oocyte membrane, required to maintain that voltage is measured using the current-sensing electrode. […]
If the compound functions as a TRPML3 enhancer, the current passing through TRPML3 channels in the oocyte membrane increases (becomes more negative). […] To quantitate the effect of a compound on TRPML3 function, the following formula is used: […]
This value corresponds to the magnitude of the current change due to compound divided by the magnitude of the current change due to NMDG multiplied by −100%. […] All four oocytes expressed TRPML3, as evidenced by the inhibitory effect of NMDG on measured oocyte currents. […]

[Cl][Gd]([Cl])[Cl] [gadolinium, gadolinium chloride]
effect on TRPML3 current and slope of the I/V curve: blocks TRPML3 current and decreases the slope of the I/V curve
